Source: patent US4336375A, “Cephalosporanic acid derivatives” (American Cyanamid Company, priority 1980, dated 1982)
Values after ≈ are worked out from the molar mass of the structure shown. Like-named read-outs stand apart in the source and are kept apart here.

Assays:
Escherichia coli 311 [1] = assay: In vivo systemic lethal infection of mice, Escherichia coli 311; set-up: species or system Charles River CD-1 mice; settings: CD-1 mice
From the text: (§1) As shown in Table II these compounds show high in vivo antibacterial activity against Escherichia coli 311 and Klebsiella pneumoniae W-75-2 when administered by a single subcutaneous dose to groups of Charles River CD-1 mice, weighing about 20 g. each. The mice are infected intraperitoneally with a lethal dose of these bacteria.

[2] = tested on: Klebsiella pneumoniae W-75-2; assay: In vivo systemic lethal infection of mice, Klebsiella pneumoniae W-75-2; set-up: species or system Charles River CD-1 mice; settings: CD-1 mice
From the text: as §1

[3] = tested on: Pseudomonas aeruginosa UCS 76-13; assay: In vitro MIC, agar dilution, Pseudomonas aeruginosa UCS 76-13; assay type: cell-based; settings: UCS7613; Pseudomonas aeruginosa UCS 76-13; agar dilution, 35° C., 18 hours, nutrient agar; read-out: Minimal Inhibitory Concentration
Method: (§2) The in vitro activity of representative compounds of the present invention are given in the following Table I in terms of minimal inhibitory concentration. The test used was the standard agar dilution test using a Steers multiple inocula replicator and incubating at 35° C. for 18 hours in conventional nutrient agar.

[4] = tested on: Pseudomonas aeruginosa 12-4-4; assay: In vitro MIC, agar dilution, Pseudomonas aeruginosa 12-4-4; assay type: cell-based; settings: 1244; Pseudomonas aeruginosa 12-4-4; agar dilution, 35° C., 18 hours, nutrient agar; read-out: Minimal Inhibitory Concentration
Method: as §2

[5] = tested on: Enterobacter cloacae MA75-1; assay: In vitro MIC, agar dilution, Enterobacter cloacae MA75-1; assay type: cell-based; settings: read-out: Minimal Inhibitory Concentration
Method: as §2

Escherichia coli W75-1 = assay: In vitro MIC, agar dilution, Escherichia coli W75-1; assay type: cell-based; settings: W751, 35° C., 18 hours, nutrient agar, read-out: Minimal Inhibitory Concentration
Method: as §2

Serratia K101 = assay: In vitro MIC, agar dilution, Serratia K101; assay type: cell-based; settings: Serratia K101; agar dilution, 35° C., 18 hours, nutrient agar; read-out: Minimal Inhibitory Concentration
Method: as §2

[6] = tested on: Staphylococcus aureus Q74-1; assay: In vitro MIC, agar dilution, Staphylococcus aureus Q74-1; assay type: cell-based; settings: Q741; Staphylococcus aureus Q74-1; agar dilution, 35° C., 18 hours, nutrient agar; read-out: Minimal Inhibitory Concentration
Method: as §2

Escherichia coli 311 [7] = assay: In vitro MIC, agar dilution, Escherichia coli 311; assay type: cell-based; settings: 35° C., 18 hours, nutrient agar, read-out: Minimal Inhibitory Concentration
Method: as §2

Klebsiella pneumoniae AD = assay: In vitro MIC, agar dilution, Klebsiella pneumoniae AD; assay type: cell-based; settings: Klebsiella pneumoniae AD; agar dilution, 35° C., 18 hours, nutrient agar; read-out: Minimal Inhibitory Concentration
Method: as §2

[8] = tested on: Klebsiella pneumoniae W75-4; assay: In vitro MIC, agar dilution, Klebsiella pneumoniae W75-4; assay type: cell-based; settings: W754; Klebsiella pneumoniae W75-4; agar dilution, 35° C., 18 hours, nutrient agar; read-out: Minimal Inhibitory Concentration
Method: as §2

Proteus vulgaris N74-1 = assay: In vitro MIC, agar dilution, Proteus vulgaris N74-1; assay type: cell-based; settings: N741, 35° C., 18 hours, nutrient agar, read-out: Minimal Inhibitory Concentration
Method: as §2

Serratia marcens K77-1 = assay: In vitro MIC, agar dilution, Serratia marcens K77-1; assay type: cell-based; settings: K771; Serratia marcens K77-1; agar dilution, 35° C., 18 hours, nutrient agar; read-out: Minimal Inhibitory Concentration
Method: as §2

[9] = tested on: Klebsiella pneumoniae MA75-1; assay: In vitro MIC, agar dilution, Klebsiella pneumoniae MA75-1; assay type: cell-based; settings: MA751; Klebsiella pneumoniae MA75-1; agar dilution, 35° C., 18 hours, nutrient agar; read-out: Minimal Inhibitory Concentration
Method: as §2

[10] = tested on: Pseudomonas aeruginosa PD05141; assay: In vitro MIC, agar dilution, Pseudomonas aeruginosa PD05141; assay type: cell-based; settings: read-out: Minimal Inhibitory Concentration
Method: as §2

Enterococcus SM77-15 = assay: In vitro MIC, agar dilution, Enterococcus SM77-15; assay type: cell-based; settings: SM7715; Enterococcus SM77-15; agar dilution, 35° C., 18 hours, nutrient agar; read-out: Minimal Inhibitory Concentration
Method: as §2

[11] = tested on: Klebsiella pneumoniae W75-2; assay: In vitro MIC, agar dilution, Klebsiella pneumoniae W75-2; assay type: cell-based; settings: W752; Klebsiella pneumoniae W75-2; agar dilution, 35° C., 18 hours, nutrient agar; read-out: Minimal Inhibitory Concentration
Method: as §2

[12] = tested on: Staphylococcus aureus Q74-6; assay: In vitro MIC, agar dilution, Staphylococcus aureus Q74-6; assay type: cell-based; settings: Q746; Staphylococcus aureus Q74-6; agar dilution, 35° C., 18 hours, nutrient agar; read-out: Minimal Inhibitory Concentration
Method: as §2

Proteus morganii K72 = assay: In vitro MIC, agar dilution, Proteus morganii K72; assay type: cell-based; settings: Morganella morganii; Proteus morganii K72; agar dilution, 35° C., 18 hours, nutrient agar; read-out: Minimal Inhibitory Concentration
Method: as §2

Proteus rettgeri N76-1 = assay: In vitro MIC, agar dilution, Proteus rettgeri N76-1; assay type: cell-based; settings: Providencia rettgeri, N761; Proteus rettgeri N76-1; agar dilution, 35° C., 18 hours, nutrient agar; read-out: Minimal Inhibitory Concentration
Method: as §2

[13] = tested on: Klebsiella pneumoniae UR76-1; assay: In vitro MIC, agar dilution, Klebsiella pneumoniae UR76-1; assay type: cell-based; settings: UR761; Klebsiella pneumoniae UR76-1; agar dilution, 35° C., 18 hours, nutrient agar; read-out: Minimal Inhibitory Concentration
Method: as §2

[14] = tested on: Pseudomonas aeruginosa G236; assay: In vitro MIC, agar dilution, Pseudomonas aeruginosa G236; assay type: cell-based; settings: Pseudomonas aeruginosa G236; agar dilution, 35° C., 18 hours, nutrient agar; read-out: Minimal Inhibitory Concentration
Method: as §2

[15] = tested on: Escherichia coli ESS22-31; assay: In vitro MIC, agar dilution, Escherichia coli ESS22-31; assay type: cell-based; settings: ESS2231; Escherichia coli ESS22-31; agar dilution, 35° C., 18 hours, nutrient agar; read-out: Minimal Inhibitory Concentration
Method: as §2

Serratia marcens QHC77-2 = assay: In vitro MIC, agar dilution, Serratia marcens QHC77-2; assay type: cell-based; settings: QHC772; Serratia marcens QHC77-2; agar dilution, 35° C., 18 hours, nutrient agar; read-out: Minimal Inhibitory Concentration
Method: as §2

[16] = tested on: Enterobacter aerogenes UR76-3; assay: In vitro MIC, agar dilution, Enterobacter aerogenes UR76-3; assay type: cell-based; settings: Klebsiella aerogenes, UR763; Enterobacter aerogenes UR76-3; agar dilution, 35° C., 18 hours, nutrient agar; read-out: Minimal Inhibitory Concentration
Method: as §2

Escherichia coli OSU75-1 = assay: In vitro MIC, agar dilution, Escherichia coli OSU75-1; assay type: cell-based; settings: OSU751, 35° C., 18 hours, nutrient agar, read-out: Minimal Inhibitory Concentration
Method: as §2

[17] = tested on: Enterobacter cloacae OSU75-2; assay: In vitro MIC, agar dilution, Enterobacter cloacae OSU75-2; assay type: cell-based; settings: OSU752; Enterobacter cloacae OSU75-2; agar dilution, 35° C., 18 hours, nutrient agar; read-out: Minimal Inhibitory Concentration
Method: as §2

[18] = single subcutaneous dose 4 mg./kg.
[19] = single subcutaneous dose 8 mg./kg.
[20] = single subcutaneous dose 0.5 mg./kg.
[21] = single subcutaneous dose 1 mg./kg.
[22] = single subcutaneous dose 2 mg./kg.
[23] = single subcutaneous dose 0.12 mg./kg.
[24] = single subcutaneous dose 0.25 mg./kg.

For `Cn1nnnc1SCC1=C(C(=O)O)N2C(=O)[C@@H](NC(=O)[C@H](O)c3ccccc3)[C@H]2SC1` [Cefamandol], the “Alive/Total Mice Tested, 7 Days After Infection” value (“Alive/Total Mice Tested” below) (Escherichia coli 311 [1]; [18]) was 6/20, the “Alive/Total Mice Tested” value (Escherichia coli 311 [1]; [19]) was 11/20 and the “Alive/Total Mice Tested” value (Escherichia coli 311 [1]; single subcutaneous dose 16 mg./kg.) was 20/20. The “Alive/Total Mice Tested” value (Escherichia coli 311 [1]; single subcutaneous dose 32 mg./kg.) was 20/20, the “Alive/Total Mice Tested” value [2, 20] was 0/20 and the “Alive/Total Mice Tested” value [2, 21] was 1/20. For the same molecule, the “Alive/Total Mice Tested” value [2, 22] was 7/20, the “Alive/Total Mice Tested” value [2, 18] was 19/20 and the “Alive/Total Mice Tested” value [2, 19] was 20/20.
`CO/N=C(\C(=O)NC1C(=O)N2C(C(=O)O)=C(CSc3nnc(-n4cccn4)n3N)CSC12)c1csc(N)n1` (stereo not drawn) [Compound I, 7-[2-(Syn-methoxyimino)-2-(2-aminothiazol-4-yl)acetamido]-3-[4-amino-5-(1-pyrazolyl)-1,2,4-triazol-3-ylthiomethyl]-3-cephem-4-carboxylic acid] showed an MIC [3] of 128 µg/mL (≈ 222 µM), an MIC [4] of 64 µg/mL (≈ 111 µM) and an MIC ([5]; MA751, Enterobacter cloacae MA75-1, agar dilution, 35° C., 18 hours, nutrient agar) of 128 µg/mL (≈ 222 µM). The MIC (Escherichia coli W75-1) was at most 0.12 µg/mL, the “Alive/Total Mice Tested” value (Escherichia coli 311 [1]; [23]) was 1/20 and the “Alive/Total Mice Tested” value (Escherichia coli 311 [1]; [24]) was 6/20. The “Alive/Total Mice Tested” value (Escherichia coli 311 [1]; [20]) was 15/20, the “Alive/Total Mice Tested” value (Escherichia coli 311 [1]; [21]) was 19/20 and the MIC (Serratia K101) was 0.5 µg/mL (≈ 0.866 µM). For the same molecule, the MIC [6] was 2 µg/mL (≈ 3.46 µM), the MIC (Escherichia coli 311 [7]) was at most 0.12 µg/mL and the MIC (Klebsiella pneumoniae AD) was at most 0.12 µg/mL. The MIC [8] was at most 0.12 µg/mL, the MIC (Proteus vulgaris N74-1) was at most 0.12 µg/mL and the MIC (Serratia marcens K77-1) was 0.5 µg/mL (≈ 0.866 µM). The MIC [9] was at most 0.12 µg/mL, the MIC ([10]; Pseudomonas aeruginosa, PD05141, 18 h) was 128 µg/mL (≈ 222 µM) and the MIC (Enterococcus SM77-15) was over 128 µg/mL. For the same molecule, the MIC [11] was at most 0.12 µg/mL, the MIC [12] was 64 µg/mL (≈ 111 µM) and the MIC (Proteus morganii K72) was at most 0.12 µg/mL. The MIC (Proteus rettgeri N76-1) was at most 0.12 µg/mL, the MIC [13] was 0.5 µg/mL (≈ 0.866 µM) and the “Alive/Total Mice Tested” value ([2]; single subcutaneous dose 0.06 mg./kg.) was 1/20. The “Alive/Total Mice Tested” value [2, 23] was 2/20, the “Alive/Total Mice Tested” value [2, 24] was 14/20 and the “Alive/Total Mice Tested” value [2, 20] was 19/20. For the same molecule, the MIC [14] was 64 µg/mL (≈ 111 µM), the MIC [15] was at most 0.12 µg/mL and the MIC (Serratia marcens QHC77-2) was 1 µg/mL (≈ 1.73 µM). The MIC [16] was at most 0.12 µg/mL, the MIC (Escherichia coli OSU75-1) was at most 0.12 µg/mL and the MIC [17] was 0.5 µg/mL (≈ 0.866 µM).
Work on `CO/N=C(\C(=O)NC1C(=O)N2C(C(=O)O)=C(CSc3n[nH]c(-n4cccn4)n3)CSC12)c1csc(N)n1` (stereo not drawn) [Compound V, 7-[2-(Syn-methoxyimino)-2-(2-aminothiazol-4-yl)acetamido]-3-[5-(1-pyrazolyl)-1,2,4-triazol-3-ylthiomethyl]-3-cephem-4-carboxylic acid] yielded an MIC [3] of 64 µg/mL (≈ 114 µM), an MIC [4] of 16 µg/mL (≈ 28.4 µM) and an MIC ([5]; Enterobacter cloacae, MA751, 18 h) of over 128 µg/mL. The MIC (Escherichia coli W75-1) was at most 0.12 µg/mL, the “Alive/Total Mice Tested” value (Escherichia coli 311 [1]; [24]) was 0/5 and the “Alive/Total Mice Tested” value (Escherichia coli 311 [1]; [20]) was 0/5. The “Alive/Total Mice Tested” value (Escherichia coli 311 [1]; [21]) was 5/5, the “Alive/Total Mice Tested” value (Escherichia coli 311 [1]; [22]) was 5/5 and the “Alive/Total Mice Tested” value (Escherichia coli 311 [1]; [18]) was 5/5. It also gave an MIC (Serratia K101) of 0.5 µg/mL (≈ 0.889 µM), an MIC [6] of 1 µg/mL (≈ 1.78 µM) and an MIC (Escherichia coli 311 [7]) of at most 0.12 µg/mL. For the same molecule, the MIC (Klebsiella pneumoniae AD) was at most 0.12 µg/mL, the MIC [8] was at most 0.12 µg/mL and the MIC (Proteus vulgaris N74-1) was 2 µg/mL (≈ 3.55 µM). The MIC (Serratia marcens K77-1) was 0.5 µg/mL (≈ 0.889 µM), the MIC [9] was at most 0.12 µg/mL and the MIC ([10]; Pseudomonas aeruginosa PD05141, agar dilution, 35° C., 18 hours, nutrient agar) was 64 µg/mL (≈ 114 µM). For the same molecule, the MIC (Enterococcus SM77-15) was over 128 µg/mL, the MIC [11] was at most 0.12 µg/mL and the MIC [12] was 64 µg/mL (≈ 114 µM). The MIC (Proteus morganii K72) was at most 0.12 µg/mL, the MIC (Proteus rettgeri N76-1) was at most 0.12 µg/mL and the MIC [13] was 0.25 µg/mL (≈ 0.444 µM). The MIC [14] was 16 µg/mL (≈ 28.4 µM), the MIC [15] was at most 0.12 µg/mL and the MIC (Serratia marcens QHC77-2) was 0.25 µg/mL (≈ 0.444 µM). It also gave an MIC [16] of at most 0.12 µg/mL, an MIC (Escherichia coli OSU75-1) of at most 0.12 µg/mL and an MIC [17] of 4 µg/mL (≈ 7.11 µM).
